{"source": "patent US8143221B2", "about": "“Use of ADNF polypeptides for treating peripheral neurotoxicity” (Ramot at Tel-Aviv University, priority 2005, dated 2012)", "molecules": {"B1": {"name": "ADNP: full length ADNF III, activity-dependent neuroprotective protein (protein, UniProt Q9H2P0 1-1102, looked up)", "chain": "MFQLPVNNLGSLRKARKTVKKILSDIGLEYCKEHIEDFKQFEPNDFYLKNTTWEDVGLWDPSLTKNQDYRTKPFCCSACPFSSKFFSAYKSHFRNVHSEDFENRILLNCPYCTFNADKKTLETHIKIFHAPNASAPSSSLSTFKDKNKNDGLKPKQADSVEQAVYYCKKCTYRDPLYEIVRKHIYREHFQHVAAPYIAKAGEKSLNGAVPLGSNAREESSIHCKRCLFMPKSYEALVQHVIEDHERIGYQVTAMIGHTNVVVPRSKPLMLIAPKPQDKKSMGLPPRIGSLASGNVRSLPSQQMVNRLSIPKPNLNSTGVNMMSSVHLQQNNYGVKSVGQGYSVGQSMRLGLGGNAPVSIPQQSQSVKQLLPSGNGRSYGLGSEQRSQAPARYSLQSANASSLSSGQLKSPSLSQSQASRVLGQSSSKPAAAATGPPPGNTSSTQKWKICTICNELFPENVYSVHFEKEHKAEKVPAVANYIMKIHNFTSKCLYCNRYLPTDTLLNHMLIHGLSCPYCRSTFNDVEKMAAHMRMVHIDEEMGPKTDSTLSFDLTLQQGSHTNIHLLVTTYNLRDAPAESVAYHAQNNPPVPPKPQPKVQEKADIPVKSSPQAAVPYKKDVGKTLCPLCFSILKGPISDALAHHLRERHQVIQTVHPVEKKLTYKCIHCLGVYTSNMTASTITLHLVHCRGVGKTQNGQDKTNAPSRLNQSPSLAPVKRTYEQMEFPLLKKRKLDDDSDSPSFFEEKPEEPVVLALDPKGHEDDSYEARKSFLTKYFNKQPYPTRREIEKLAASLWLWKSDIASHFSNKRKKCVRDCEKYKPGVLLGFNMKELNKVKHEMDFDAEWLFENHDEKDSRVNASKTADKKLNLGKEDDSSSDSFENLEEESNESGSPFDPVFEVEPKISNDNPEEHVLKVIPEDASESEEKLDQKEDGSKYETIHLTEEPTKLMHNASDSEVDQDDVVEWKDGASPSESGPGSQQVSDFEDNTCEMKPGTWSDESSQSEDARSSKPAAKKKATMQGDREQLKWKNSSYGKVEGFWSKDQSQWKNASENDERLSNPQIEWQNSTIDSEDGEQFDNMTDGVAEPMHGSLAGVKLSSQQA", "modifications": "full-length"}}, "key": {"[1]": {"tested_on": "peripheral neurotoxicity under chemotherapy including L-OHP, FA/5-FU", "experiment": "Randomized trial with or without NAP under chemotherapy with oxaliplatin (L-OHP), FA/5-FU", "assay_type": "in vivo", "details": "patients with ACRC, NAP 15 mg/45-70 kg i.v. before L-OHP, vs control group", "protocol": "Aim of the study: Chemotherapy with L-OHP, FA, 5-FU has a high activity in advanced colorectal cancer (ACRC). The main dose-limiting toxicity of chemotherapy with L-OHP is a peripheral sensory neuropathy. In this study the patients (pts) will receive a chemotherapy with L-OHP, FA and 5-FU with or without NAP. The question is whether a reduction of side effects of neurotoxicity is seen after application of NAP.\nWe include 27 patients with ACRC. In arm A chemotherapy is applied with L-OHP 85 mg/m2 d1, FA 500 mg/m2 d1+d2 and 5-FU 4000 mg/m2 over 48 h continuous infusion as biweekly schedule. In arm B, 15 mg/45-70 kg NAP is given over 10 min i.v. before application of the same schedule of chemotherapy. Investigation of toxicity, neurological examination and a blood count is performed before every cycle. For a daily documentation of the side effects every patient receives a questionnaire."}, "[2]": {"tested_on": "peripheral neurotoxicity induced by the taxane taxol", "experiment": "Rota-rod test in taxol-treated rats", "details": "Experiment 2: rats, taxol cumulative 9 mg/kg i.p.; five days after the first taxol injection", "method": "In the Rota-rod test a rodent is placed on a rotating rod. […] The time spent on the rota-rod without falling was recorded. Impaired animals fall earlier from the rota-rod.\n(§3) Forty Sprague-Dawley rats (eight weeks old) were divided into four groups that received the following treatments: a) 10% Cremophor EL in Saline; b) taxol for a cumulative dose of 5.6 mg/kg; c) taxol for a cumulative dose of 5.6 mg/kg+NAP 2.5 μg/kg/Day; or d) taxol for a cumulative dose of 5.6 mg/kg+NAP 25 μg/kg/Day. The taxol was reconstituted in a vehicle of 10% Cremophor EL in Saline.\n(§4) Taxol treatments were administered four times intraperitoneally (i.p.) on nonconsecutive days in a volume of 250 μl each time. NAP was administered daily on 8 consecutive days from the first day of taxol injection (with a 2 day brake on the weekend).\nRats were tested in the rota-rod and plantar test. The rota-rod test is described above and assesses muscle strength. […] Statistical differences were tested by ANOVA and by t-test.\nFifteen Sprague-Dawley Rats (seven weeks old) were randomly divided into three groups that received the following treatments: a) 10% Cremophor EL in Saline; b) taxol for a cumulative dose of 9 mg/kg; or c) taxol for a cumulative dose of 9 mg/kg+2.5 μg/kg/Day NAP. The taxol was reconstituted in a vehicle of 10% Cremophor EL in Saline. […]"}, "[3]": {"tested_on": "peripheral neurotoxicity induced by the taxane taxol", "experiment": "Plantar test (thermal hyperalgesia) in taxol-treated rats", "method": "as §3, §4\nRats were tested in the rota-rod and plantar test. […] The plantar test evaluates thermal hyperalgesia. For the plantar test, each rat was placed in a clear plastic chamber with a plastic floor and allowed a short period to acclimatize to the new environment (approximately 2-5 min). The animals were then challenged with a radiant Infrared (IR) heat source directed at the plantar surface of the hind paw from below (7371 Plantar Test, Ugo Basile). The withdrawal latency of both the ipsilateral and contralateral hind paw was evaluated. The infrared intensity was set at IR55 and the maximum length of exposure to the IR source was eighteen seconds. Statistical differences were tested by ANOVA and by t-test. […]"}, "[4]": {"tested_on": "peripheral neurotoxicity induced by the vinca alkaloid vincristine", "experiment": "Rota-rod test in vincristine-treated rats", "assay_type": "in vivo", "details": "vincristine 0.175 mg/kg i.p. alone vs saline control, P<0.01", "protocol": "(§1) Rats (200-300 g), divided into 4 groups of 10, were injected with vincristine sulfate dissolved in saline. Stock concentration was 2 mg/ml, pH 4.5-5.2. Aliquots of the drug were diluted daily in saline to concentrations of 0.175 mg/ml and were administered i.p. at a dose of 0.175 mg/kg. NAP was prepared at 0.1 mg/1.3 ml in saline (0.9% NaCl) and about 0.1 ml was injected subcutaneously to a ˜300 g rat to achieve a dose of 25 microgram/kg (exact calculations were made based on the daily body weights). For 2.5 microgram/kg, the injection solution was diluted by 10 and again 0.1 ml was injected per rat. Treatments took place daily (5 days a week) for ˜3 weeks (20 days) with the dosage calculated on daily body weight. NAP was administered at the same time as the vincristine, in the dosage and the amount where indicated the following schedule.\n(§2) Four groups were evaluated: 1) Control, saline (n=10), 2) Vincristine (i.p.) 0.175 mg/kg (n=10), 3) Vincristine (i.p.) 0.175 mg/kg+NAP (s.c.) 2.5 microgram/kg (n=10), and 4) Vincristine (i.p.) 0.175 mg/kg+NAP (s.c.) 25 microgram/kg (n=10).\nAfter a week cessation of treatment, a final boost of vincristine was given i.p. daily for three days and NAP at 25 microgram/kg was given intranasally to group number 4 only. […] For behavioral testing baseline toxin effects were evaluated 2-23 days following the first injection, using the testing procedures below: […]"}, "[5]": {"tested_on": "peripheral neurotoxicity induced by the vinca alkaloid vincristine", "experiment": "Motor evaluation: ability to exit a circle 30 cm in diameter within 20 seconds, vincristine-treated rats", "assay_type": "in vivo", "details": "vincristine 0.175 mg/kg i.p. alone vs control", "protocol": "as §1, §2\nMotor examination was performed on days 6, 9, 13 and 24 after the initiation of the vincristine injections. Rats were examined after vincristine injection, with the use of a motor disability scale. […]\nAnimals were assessed based on their failure to walk out of a circle 30 cm in diameter within 20 seconds."}, "[6]": {"tested_on": "peripheral neurotoxicity induced by the vinca alkaloid vincristine", "experiment": "Olfactory discrimination test in vincristine-treated rats", "assay_type": "in vivo", "details": "vincristine alone (group 2)", "protocol": "Treatments took place daily (5 days a week) for ˜3 weeks (20 days) with the dosage calculated on daily body weight. NAP was administered subcutaneously at the same time as the vincristine was administered intraperitoneally, in the dosage and the amount indicated in the schedule above. After a week cessation of treatment a final boost of vincristine was given i.p. daily for three days and NAP at 25 microgram/kg was given intranasally to group number 4 only. The intranasal formulation followed the previous experiment (Alcalay et al., infra). An olfactory discrimination test was performed on each of the three days of NAP treatment during the final boost period. (Macknin et al., Brain Res. 1000, 174-78 (2004)) The odors tested were 1) Deionized water (ddw) and 2) Scented extracts, i.e., vanilla/almond.\nOverall the experiment included 3 odors (water and two scented extracts) each encompassing 3 trials of 2 minutes. New dipped tip was introduced at the beginning of each trial for the different scents.\nThirty minutes before the testing the subjects were housed in separate cages and a cotton tip dipped in water was placed hanging into the cage. During these 30 minutes the animal was acclimatized to the tip and the cage. Thereafter, the cotton tip was dipped in the desired scent and placed hanging from the top of the cage. […]"}, "[7]": {"tested_on": "neurons of the central nervous system", "details": "in-vitro assays and in vivo disease models; cited from earlier work"}, "tubulin": {"tested_on": "tubulin", "details": "cited from earlier work"}}, "note": "Ends that are not written are not given here."}
{"molecule": "CC[C@H](C)[C@H](NC(=O)[C@H](CO)NC(=O)[C@@H](NC(=O)[C@@H]1CCCN1C(=O)[C@H](C)NC(=O)[C@@H](N)CC(N)=O)C(C)C)C(=O)N1CCC[C@H]1C(=O)N[C@@H](CCC(N)=O)C(=O)O", "note": "[NAP, Asn-Ala-Pro-Val-Ser-Ile-Pro-Gln]", "values": [{"measurement": "Frequency of grade II/III leucopenia", "setting": "[1]", "value": "occurs at a lower frequency than in the control group"}]}
{"molecule": "CC(=O)O[C@H]1C(=O)[C@@]2(C)[C@H]([C@H](OC(=O)c3ccccc3)[C@]3(O)C[C@H](OC(=O)[C@H](O)[C@@H](NC(=O)c4ccccc4)c4ccccc4)C(C)=C1C3(C)C)[C@]1(OC(C)=O)CO[C@@H]1C[C@@H]2O", "note": "[taxol]", "values": [{"measurement": "Rota-rod test: neuromuscular function, toxin alone", "setting": "[2]", "value": "a significant effect on neuromuscular function"}, {"measurement": "Plantar test: thermal hyperalgesia, toxin alone", "setting": "[3]; Experiment 1: rats, taxol cumulative 5.6 mg/kg i.p., after the last taxol injection on day three", "value": "exhibited thermal hyperalgesia"}, {"measurement": "Plantar test: thermal hyperalgesia, toxin alone", "setting": "[3]; Experiment 2: rats, taxol cumulative 9 mg/kg i.p., eight days after the last Taxol injection", "value": "exhibited a significant thermal hyperalgesia"}]}
{"molecule": "CC[C@]1(O)C[C@H]2CN(CCc3c([nH]c4ccccc34)[C@@](C(=O)OC)(c3cc4c(cc3OC)N(C=O)[C@H]3[C@@](O)(C(=O)OC)[C@H](OC(C)=O)[C@]5(CC)C=CCN6CC[C@]43[C@@H]65)C2)C1", "note": "[vincristine]", "values": [{"measurement": "Rota-rod performance, toxin alone vs control", "setting": "[4]", "value": "significant difference between the vincristine treated animals and the control animals indicating impairment"}, {"measurement": "Ability to exit a circle 30 cm in diameter within 20 seconds, toxin alone vs control", "setting": "[5]; P<0.001", "value": "significantly reduced"}, {"measurement": "Ability to exit a circle 30 cm in diameter within 20 seconds, toxin alone vs control", "setting": "[5]; P<0.001, listed as Vincristine", "value": "significantly worse as compared to control animals"}, {"measurement": "Time spent with new odors: olfaction capacity, toxin alone", "setting": "[6]", "value": "did not show any initial interest in the new smell"}]}
{"molecule": "SALLRSIPA", "values": [{"measurement": "Neuron survival in response to various insults", "setting": "[7]", "value": "keep neurons of the central nervous system alive"}, {"measurement": "Interaction with tubulin", "setting": "tubulin", "value": "interact with tubulin"}]}
{"molecule": "B1", "values": [{"measurement": "Interaction with tubulin", "setting": "tubulin", "value": "interact with tubulin"}]}
